Laboratory results: US6326034A, “Natural extracted and synthetic antioxidant compositions” (priority 1999, dated 2001)

Key:
[1] = β-carotene test (coupled oxidation of β-carotene and linoleic acid), in vitro; details: β Carotene test; for antioxidant activity (in words): chromium compounds and their reactants; for EC50 for antioxidant activity of chromium compounds: Table 6
Protocol: Evaluation of antioxidant activity is based on coupled oxidation of β-carotene and linoleic acid. The technique consists of measuring the consumption of β-carotene as a result of its oxidation process in the reaction mixture. The β-carotene-linoleic acid method has been reported as an efficient technique to detect and evaluate antioxidants from plants and from other sources by several investigation groups. Ten milligram of β-carotene were dissolved in 10 ml chloroform and 0.6 ml of the solution was added to a round flask that contained 20 mg of linoleic acid and 200 mg of Tween 20. Chloroform was removed by evaporation, and 50 ml of distilled water were slowly added to the flask with vigorous agitation to form an emulsion. Two milliliters of the emulsion were added to 1 ml of the examined antioxidant solution. The tubes were placed in a water bath at 50° C. and absorbance measurements were made at 30 minutes intervals [M. S. Taga et al., J. Am. Oil Chem. Soc. 61: 928-931, 1984]. […]

[2] = FRAP assay (ferric reducing/antioxidant power), in vitro

| Compound | antioxidant activity (in words) [1] | EC50 for antioxidant activity of chromium compounds [1] | also measured |
| --- | --- | --- | --- |
| CC(=O)N[C@@H](CS)C(=O)O [NAC, N-acetyl cysteine, reference compound] | lower activity |  |  |
| N[C@@H](CS)C(=O)O [Cysteine, cysteine, reference compound] | no antioxidant activity |  |  |
| Chromium-Glutathione [Cr-GSH] | dose dependent antioxidant activity | 2.7 × 10^-7 mg Cr/ml |  |
| O=S(=O)([O-])[O-].O=S(=O)([O-])[O-].O=S(=O)([O-])[O-].[Cr+3].[Cr+3] [Cr2(SO4)3, chromium sulfate, reference compound] | relatively much lower antioxidant effect |  |  |
| Chromium Cysteine [Cr-Cys] | the most active complex | 7.8 × 10^-8 mg Cr/ml | fold more active than cysteine ([2]; at equal concentrations of cysteine, FIG. 27): 2.5 fold; antioxidant activity (in words) ([1]; listed as Cr-cysteine): dose dependent antioxidant activity |
| [Cl][Cr]([Cl])[Cl] [CrCl3, chromium chloride, reference compound] | relatively much lower antioxidant effect | 7.2 × 10^-4 mg Cr/ml | antioxidant activity (in words) ([2]; chromium compounds, FRAP, all concentrations used): inactive |
| Chromium-Cystine | did not show any antioxidant activity |  |  |
| CC(=O)[O-].CC(=O)[O-].CC(=O)[O-].[Cr+3] [Cr Acetate, chromium acetate, reference compound] | lacks any antioxidant activity |  |  |
| Chromium N-Acetyl Cysteine [Cr-NAC] | dose dependent antioxidant activity | 2.7 × 10^-7 mg Cr/ml |  |
| N[C@@H](CCC(=O)N[C@@H](CS)C(=O)NCC(=O)O)C(=O)O [Glutathione, glutathione, reference compound] | lower activity |  |  |
